From patent US20230271954A1 (Gossamer Bio Services, Inc., priority 2020, published 2023) come the findings set out here.

One experiment addresses T1, DGKζ (Homo sapiens, UniProt Q13574).
T1 construct: purchased Carna 12-110
In words: DGKζ biochemical assay (ADP-Glo). The settings on record: read-out: DGK ζ IC50.

A further experiment concerns the target DGKα (Homo sapiens, UniProt P23743). In words: DGKα biochemical assay (ADP-Glo). Conditions: read-out: DGK α IC50. An outline of the steps: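 ADP-Glo kinase assay using OAG/PS (1:2) lipid substrate, sonicated, in HEPES pH 7.0 buffer with MgCl2, CaCl2, DTT, BSA, Triton X-100. Enzyme preincubated with compound 30 min at RT; substrate with ATP (DGKα: 400 μM) added, 45 min RT. Luminescence read; % inhibition vs DMSO and no-enzyme controls.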

T1 sequence (Q13574 1-929 isoform Q13574-4): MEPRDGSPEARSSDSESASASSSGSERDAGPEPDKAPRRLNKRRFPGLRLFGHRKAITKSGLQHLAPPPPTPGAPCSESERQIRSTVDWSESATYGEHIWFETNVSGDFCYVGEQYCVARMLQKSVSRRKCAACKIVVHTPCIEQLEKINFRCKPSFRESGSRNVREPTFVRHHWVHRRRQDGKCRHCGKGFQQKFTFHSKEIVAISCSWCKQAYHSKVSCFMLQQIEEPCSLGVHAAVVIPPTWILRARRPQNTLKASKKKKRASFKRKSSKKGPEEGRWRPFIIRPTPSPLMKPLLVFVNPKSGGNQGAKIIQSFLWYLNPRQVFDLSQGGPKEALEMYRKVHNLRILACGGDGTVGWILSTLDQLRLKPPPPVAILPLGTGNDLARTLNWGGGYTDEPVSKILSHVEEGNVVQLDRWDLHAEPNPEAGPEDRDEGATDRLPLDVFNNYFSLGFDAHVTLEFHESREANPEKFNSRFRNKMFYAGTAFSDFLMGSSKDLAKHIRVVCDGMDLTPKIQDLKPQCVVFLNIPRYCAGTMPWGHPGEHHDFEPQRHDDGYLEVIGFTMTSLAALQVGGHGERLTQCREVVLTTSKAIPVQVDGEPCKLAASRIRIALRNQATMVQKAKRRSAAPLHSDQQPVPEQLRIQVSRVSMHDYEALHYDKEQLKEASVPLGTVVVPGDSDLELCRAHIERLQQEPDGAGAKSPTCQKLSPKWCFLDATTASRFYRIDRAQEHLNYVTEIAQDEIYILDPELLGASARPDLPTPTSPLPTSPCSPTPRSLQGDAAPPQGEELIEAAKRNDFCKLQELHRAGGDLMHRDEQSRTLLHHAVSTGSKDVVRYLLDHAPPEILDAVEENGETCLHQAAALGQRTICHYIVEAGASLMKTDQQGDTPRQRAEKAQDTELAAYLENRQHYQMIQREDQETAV
Sequence of DGKα (P23743 whole entry): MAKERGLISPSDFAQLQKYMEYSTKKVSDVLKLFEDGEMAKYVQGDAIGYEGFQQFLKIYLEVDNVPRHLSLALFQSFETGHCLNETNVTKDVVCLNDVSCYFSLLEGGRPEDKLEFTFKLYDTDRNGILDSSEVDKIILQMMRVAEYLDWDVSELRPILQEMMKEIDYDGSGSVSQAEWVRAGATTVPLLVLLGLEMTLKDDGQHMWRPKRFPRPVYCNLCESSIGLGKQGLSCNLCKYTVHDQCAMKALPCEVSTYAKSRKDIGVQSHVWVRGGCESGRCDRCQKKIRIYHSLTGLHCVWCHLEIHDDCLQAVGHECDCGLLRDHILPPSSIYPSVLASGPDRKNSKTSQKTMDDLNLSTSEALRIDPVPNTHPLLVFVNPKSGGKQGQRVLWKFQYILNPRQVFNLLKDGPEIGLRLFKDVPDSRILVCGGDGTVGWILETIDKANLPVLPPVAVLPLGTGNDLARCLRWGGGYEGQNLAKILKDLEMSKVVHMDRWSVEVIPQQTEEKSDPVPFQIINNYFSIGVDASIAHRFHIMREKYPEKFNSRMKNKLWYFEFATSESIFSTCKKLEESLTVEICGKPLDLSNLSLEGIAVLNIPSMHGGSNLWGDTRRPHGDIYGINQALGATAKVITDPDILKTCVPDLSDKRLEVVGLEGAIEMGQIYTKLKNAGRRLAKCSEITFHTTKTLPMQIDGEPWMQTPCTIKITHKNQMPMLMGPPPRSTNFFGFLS

Take `Cn1c(=O)c(C#N)c(N(C)[C@H]2CC[C@H](N(CC3CC3)c3cccnc3)CC2)c2nc(C#N)ccc21` [Example 103, trans-8-((4-((cyclopropylmethyl)(pyridin-3-yl)amino)cyclohexyl)(methyl)amino)-5-methyl-6-oxo-5,6-dihydro-1,5-naphthyridine-2,7-dicarbonitrile]: the half-maximal inhibitory concentration (IC50) at DGKζ and on DGKα was ≥ 1000 nM in each case.
On to `Cc1cc(N(CC2CCC2)[C@H]2CC[C@H](N(C)c3c(C#N)c(=O)n(C)c4ccc(C#N)nc34)CC2)ccc1F` [Example 126, trans-8-((-4-((cyclobutylmethyl)(4-fluoro-3-methylphenyl)amino)cyclohexyl)(methyl)amino)-5-methyl-6-oxo-5,6-dihydro-1,5-naphthyridine-2,7-dicarbonitrile], for which the IC50 on DGKζ and on DGKα was 100 to 1000 nM throughout.
Take `Cn1c(=O)c(C#N)c(N(C)[C@H]2CC[C@H](N(c3ccc(F)cc3O)C3CC3)CC2)c2nc(Cl)ccc21` [Example 3G, trans-6-chloro-4-((4-(cyclopropyl(4-fluoro-2-hydroxyphenyl)amino)cyclohexyl)(methyl)amino)-1-methyl-2-oxo-1,2-dihydro-1,5-naphthyridine-3-carbonitrile]: the 50% inhibitory concentration (IC50) at DGKζ is ≥ 1000 nM; on DGKα, 10 to 100 nM.
Taken in the same sequence, the figures for `Cc1ccc(N(CC2CCC2)[C@H]2CC[C@@H](N(C)c3c(C#N)c(=O)n(C)c4ccc(C#N)nc34)CC2)cc1OC(F)F` [Example 148, cis-8-((-4-((cyclobutylmethyl)(3-(difluoromethoxy)-4-methylphenyl)amino)cyclohexyl)(methyl)amino)-5-methyl-6-oxo-5,6-dihydro-1,5-naphthyridine-2,7-dicarbonitrile] were 10 to 100 nM and 10 to 100 nM.
Taken in the same sequence, the figures for `COc1cc(N(CC2CC2)[C@H]2CC[C@@H](N(C)c3cc(=O)n(C)c4ccc(C#N)nc34)CC2)cc(OC)c1F` [Example 124, cis-8-((-4-((cyclopropylmethyl)(4-fluoro-3,5-dimethoxyphenyl)amino)cyclohexyl)(methyl)amino)-5-methyl-6-oxo-5,6-dihydro-1,5-naphthyridine-2-carbonitrile] were 10 to 100 nM and 100 to 1000 nM.
For `Cn1c(=O)cc(N(C)[C@H]2CC[C@@H](N(CC3CCC3)c3ccc4c(c3)OC(F)(F)O4)CC2)c2nc(C#N)ccc21` [Example 133, cis-8-((-4-((cyclobutylmethyl)(2,2-difluorobenzo[d] [1,3]dioxol-5-yl)amino)cyclohexyl)(methyl)amino)-5-methyl-6-oxo-5,6-dihydro-1,5-naphthyridine-2-carbonitrile], in that order: 100 to 1000 nM and 10 to 100 nM.
With `Cn1c(=O)c(C#N)c(N(C)[C@H]2CC[C@H](N(CC3CC3)c3cc(F)cc(F)c3)CC2)c2nc(C#N)ccc21` [Example 86], the IC50 at DGKζ and on DGKα was 100 to 1000 nM each time.
For `Cn1c(=O)c(C#N)c(N(C)[C@H]2CC[C@@H](N(CC3CC3)c3ccc4c(c3)COC4)CC2)c2nc(C#N)ccc21` [Example 193, cis-8-((4-((cyclopropylmethyl)(1,3-dihydroisobenzofuran-5-yl)amino)cyclohexyl) (methyl)amino)-5-methyl-6-oxo-5,6-dihydro-1,5-naphthyridine-2,7-dicarbonitrile], the half-maximal inhibitory concentration (IC50) at DGKζ and on DGKα was ≥ 1000 nM in each case.
On to `Cc1ccc(N(CC2CCC2)[C@H]2CC[C@@H](N(C)c3cc(=O)n(C)c4ccc(C#N)nc34)CC2)cc1` [Example 100], for which the IC50 at DGKζ is ≥ 1000 nM; at DGKα, < 10 nM.
As for `Cn1c(=O)cc(N(C)[C@H]2CC[C@@H](N(CC3COCCO3)c3ccc4c(c3)OCO4)CC2)c2nc(C#N)ccc21` (stereo partly drawn) [Example 181, cis-8-((4-(((1,4-dioxan-2-yl)methyl)(benzo[d][1,3]dioxol-5-yl)amino)cyclohexyl)(methyl)amino)-5-methyl-6-oxo-5,6-dihydro-1,5-naphthyridine-2-carbonitrile], the IC50 was in the range of 100 to 1000 nM at DGKζ and 10 to 100 nM on DGKα.
Taken in the same sequence, the figures for `Cc1cc(F)cc(N(CC2CCC2)[C@H]2CC[C@H](N(C)c3c(C#N)c(=O)n(C)c4ccc(C#N)nc34)CC2)c1` [Example 94] were 100 to 1000 nM and 100 to 1000 nM.
For `Cn1c(=O)c(C#N)c(N(C)[C@H]2CC[C@H](N(CC3CC3)c3cccc(F)c3)CC2)c2nc(C#N)ccc21` [Example 27, trans-8-((4-((cyclopropylmethyl)(3-fluorophenyl)amino)cyclohexyl)(methyl)amino)-5-methyl-6-oxo-5,6-dihydro-1,5-naphthyridine-2,7-dicarbonitrile], in that order: 100 to 1000 nM and 100 to 1000 nM.
Taken in the same sequence, the figures for `Cn1c(=O)c(C#N)c(N[C@H]2CC[C@H](N(c3ccccc3)C3CC3)CC2)c2nc(Cl)ccc21` [Example 3A, trans-6-Chloro-4-((4-(cyclopropyl(phenyl)amino)cyclohexyl)amino)-1-methyl-2-oxo-1,2-dihydro-1,5-naphthyridine-3-carbonitrile] were ≥ 1000 nM and < 10 nM.
On to `Cc1cc2c(cc1N(CC1CCC1)[C@H]1CC[C@@H](N(C)c3c(C#N)c(=O)n(C)c4ccc(C#N)nc34)CC1)OCO2` [Example 152, cis-8-((4-((cyclobutylmethyl)(6-methylbenzo[d][1,3]dioxol-5-yl)amino)cyclohexyl)(methyl)amino)-5-methyl-6-oxo-5,6-dihydro-1,5-naphthyridine-2,7-dicarbonitrile], for which the IC50 at DGKζ and on DGKα was ≥ 1000 nM each time.
For the molecule `Cn1c(=O)cc(N(C)[C@H]2CC[C@@H](N(CC3COCCO3)c3ccc(F)cc3)CC2)c2nc(C#N)ccc21` (stereo partly drawn) [Example 163, cis-8-((-4-(((1,4-dioxan-2-yl)methyl)(4-fluorophenyl)amino)cyclohexyl)(methyl)amino)-5-methyl-6-oxo-5,6-dihydro-1,5-naphthyridine-2-carbonitrile], the concentration for half-maximal inhibition (IC50) at DGKζ is 100 to 1000 nM; at DGKα, < 10 nM.
Taken in the same sequence, the figures for `Cc1cc(F)ccc1N(CC1CC1)[C@H]1CC[C@H](N(C)c2c(C#N)c(=O)n(C)c3ccc(C#N)nc23)CC1` [Example 73, trans-8-((4-((cyclopropylmethyl)(4-fluoro-2-methylphenyl)amino)cyclohexyl)(methyl)amino)-5-methyl-6-oxo-5,6-dihydro-1,5-naphthyridine-2,7-dicarbonitrile] were 10 to 100 nM and 10 to 100 nM.
For the molecule `CN(c1c(C#N)c(=O)n(C)c2ccc(Cl)nc12)C1CCC(N(CC2CCC2)c2ccc(CN3CCOCC3)cc2)CC1` (single isomer, unassigned) [Example 191, (cis or trans)-6-chloro-4-((4-((cyclobutylmethyl)(4-(morpholinomethyl)phenyl)amino)cyclohexyl) (methyl)amino)-1-methyl-2-oxo-1,2-dihydro-1,5-naphthyridine-3-carbonitrile], the IC50 on DGKζ was ≥ 1000 nM; at DGKα, 10 to 100 nM.
On to `Cc1cc(F)ccc1N(CC1CCC1)[C@H]1CC[C@H](N(C)c2c(C#N)c(=O)n(C)c3ccc(C#N)nc23)CC1` [Example 106, trans-8-((4-((cyclobutylmethyl)(4-fluoro-2-methylphenyl)amino)cyclohexyl)(methyl)amino)-5-methyl-6-oxo-5,6-dihydro-1,5-naphthyridine-2,7-dicarbonitrile], for which the half-inhibitory concentration (IC50) on DGKζ and on DGKα was 100 to 1000 nM each time.
`Cn1c(=O)c(C#N)c(N(C)[C@H]2CC[C@@H](N(C[C@H]3C[C@H](O)C3)c3ccc(F)cc3)CC2)c2nc(C#N)ccc21` [Example 201, cis-8-((-4-((4-fluorophenyl)((trans-3-hydroxycyclobutyl)methyl)amino)cyclohexyl) (methyl)amino)-5-methyl-6-oxo-5,6-dihydro-1,5-naphthyridine-2,7-dicarbonitrile]: the figures for the half-inhibitory concentration (IC50) on DGKζ and at DGKα were ≥ 1000 nM and < 10 nM, respectively.
For `Cn1c(=O)cc(N(C)[C@H]2CC[C@@H](N(Cc3ccccc3)CC3CC3)CC2)c2nc(C#N)ccc21` [Example 214, cis-8-((-4-(benzyl(cyclopropylmethyl)amino)cyclohexyl)(methyl)amino)-5-methyl-6-oxo-5,6-dihydro-1,5-naphthyridine-2-carbonitrile], in that order: ≥ 1000 nM and ≥ 1000 nM.
For `Cn1c(=O)c(C#N)c(N(C)[C@H]2CC[C@H](N(CC3CCC3)c3ccc(F)cc3CO)CC2)c2nc(Cl)ccc21` [Example 154, trans-6-chloro-4-((4-((cyclobutylmethyl)(4-fluoro-2-(hydroxymethyl)phenyl)amino)cyclohexyl)(methyl)amino)-1-methyl-2-oxo-1,2-dihydro-1,5-naphthyridine-3-carbonitrile], in that order: ≥ 1000 nM and ≥ 1000 nM.
With `Cn1c(=O)cc(N(C)[C@H]2CC[C@@H](N(CC3CCS(=O)(=O)CC3)c3ccc(F)cc3)CC2)c2nc(C#N)ccc21` [Example 211, cis-8-((4-(((1,1-dioxidotetrahydro-2H-thiopyran-4-yl)methyl)(4-fluorophenyl)amino)cyclohexyl)(methyl)amino)-5-methyl-6-oxo-5,6-dihydro-1,5-naphthyridine-2-carbonitrile], the results for the half-maximal inhibitory concentration (IC50) at DGKζ and on DGKα were ≥ 1000 nM and 10 to 100 nM, respectively.
For `COc1cc(F)ccc1N(C1CC1)[C@H]1CC[C@@H](N(C)c2c(C#N)c(=O)n(C)c3ccc(Cl)nc23)CC1` [Example 3H, cis-6-chloro-4-((4-(cyclopropyl(4-fluoro-2-methoxyphenyl)amino)cyclohexyl)(methyl)amino)-1-methyl-2-oxo-1,2-dihydro-1,5-naphthyridine-3-carbonitrile], in that order: 10 to 100 nM and 100 to 1000 nM.
